Reference: patent publication US20070129320A9, “Methods and compositions for inducing innate immune responses” (Coley Pharmaceutical Group, Ltd., priority 2004, published 2007)

Key:
[1] = test system: murine cancer models; settings: cited from earlier work
[2] = test system: Renca (renal carcinoma) cells; test: Renal cell carcinoma (Renca) tumor model in mice: survival and tumor growth; settings: co-administration of immune stimulating complex (ISCOMATRIX adjuvant) with ODN 7909, compared with either agent alone
Experimental: • Mice: All experiments were carried out using female BALB/c mice aged 6-8 weeks with 10 mice per experimental or control group. • Oligonucleotides: All oligonucleotides were obtained from Coley Pharmaceutical GmbH, Langenfeld, Germany. • Immune stimulating complexes: ISCOMATRIX® adjuvant, herein referred to as IMX, was the immune stimulating complex used in these Examples.
Female BALB/c mice (n=10 per group) were injected with 2×10^5 Renca (renal carcinoma) cells by SC injection into the left flank. Animals were treated with CpG 7909 alone, ISCOMATRIX® (IMX) alone or a combination of CpG 7909 and INIX administered by SC injection into the tumor perimeter weekly from day 10-28 post tumor cell injection. Control animals were injected with 100 μl of phosphate buffered saline (PBS) weekly from day 10-38 post tumor cell injection. Animals were monitored for survival (FIG. 1, panel A) and tumor growth (FIG. 1, panel B). Tumor size (length and width) was measured using a digital vernier calliper. Tumor volume was calculated by using the formula: Tumor volume=(0.4) (ab2), where a=large diameter and b=smaller diameter. In the tumor volume graph (FIG. 1, panel B), changes in average tumor volume are indicated until 50% death in each animal group.

TCGTCGTTTTGTCGTTTTGTCGTT [CpG 7909]
anti-tumor effects ([1]; several murine cancer models, demonstrated previously): demonstrated previously | effect on anti-tumor effects of chemotherapeutic drugs ([1]; shown previously): augment the anti-tumor effects of some chemotherapeutic drugs | survival [2]: increased survival | tumor growth [2]: controlled tumor growth better than did either agent alone
